Laboratory results published in PubChem BioAssay AID1963962 (Molecular Pharmacology Branch, DTP, NCI, 2024).
pIC50: −log10 of the molar value. Values joined by “and” are separate entries in the source; they are usually repeats but may differ in a detail not shown here. Equal entries are not always repeated.

Tested on: 967376-340-R-J2-PDC multicell spheroid viability
Test: Anticancer human tumor 967376-340-R-J2-PDC patient-derived colon adenocarcinoma cell line growth inhibition [PI3K]
Conditions: for viability, T/C: stronger effect = lower value
How it was run: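 Agents were dosed from a top concentration near clinical Cmax (otherwise 10 microM) in half-log decrements, alone or combined with PI3K inhibitors. The spheroids contain tumor cells plus endothelial (HUVEC) and MSC stroma; viability is measured.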

[1] = curve of first compound, second compound 0.0316 µM
[2] = curve of first compound, second compound 0.1 µM
[3] = curve of first compound, second compound 0.316 µM
[4] = curve of first compound, second compound 1 µM
[5] = second compound 0.0316 µM, first compound 0.0316 µM
[6] = second compound 0.0316 µM, first compound 0.1 µM
[7] = second compound 0.0316 µM, first compound 0.316 µM
[8] = second compound 0.0316 µM, first compound 1 µM
[9] = second compound 0.0316 µM, first compound 3.16 µM
[10] = second compound 0.0316 µM, first compound 10 µM
[11] = second compound 0.1 µM, first compound 0.0316 µM
[12] = second compound 0.1 µM, first compound 0.1 µM
[13] = second compound 0.1 µM, first compound 0.316 µM
[14] = second compound 0.1 µM, first compound 1 µM
[15] = second compound 0.1 µM, first compound 3.16 µM
[16] = second compound 0.1 µM, first compound 10 µM
[17] = second compound 0.316 µM, first compound 0.0316 µM
[18] = second compound 0.316 µM, first compound 0.1 µM
[19] = second compound 0.316 µM, first compound 0.316 µM
[20] = second compound 0.316 µM, first compound 1 µM
[21] = second compound 0.316 µM, first compound 3.16 µM
[22] = second compound 0.316 µM, first compound 10 µM
[23] = second compound 1 µM, first compound 0.0316 µM
[24] = second compound 1 µM, first compound 0.1 µM
[25] = second compound 1 µM, first compound 0.316 µM
[26] = second compound 1 µM, first compound 1 µM
[27] = second compound 1 µM, first compound 3.16 µM
[28] = second compound 1 µM, first compound 10 µM
[29] = curve of first compound, second compound 3.16 µM
[30] = curve of first compound, second compound 10 µM
[31] = second compound 3.16 µM, first compound 0.0316 µM
[32] = second compound 3.16 µM, first compound 0.1 µM
[33] = second compound 3.16 µM, first compound 0.316 µM
[34] = second compound 3.16 µM, first compound 1 µM
[35] = second compound 3.16 µM, first compound 3.16 µM
[36] = second compound 3.16 µM, first compound 10 µM
[37] = second compound 10 µM, first compound 0.0316 µM
[38] = second compound 10 µM, first compound 0.1 µM
[39] = second compound 10 µM, first compound 0.316 µM
[40] = second compound 10 µM, first compound 1 µM
[41] = second compound 10 µM, first compound 3.16 µM
[42] = second compound 10 µM, first compound 10 µM
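Further: spheroids exposed to agents for 7 days before read-out.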
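Wherever viability, T/C is given: luminescence used as surrogate of cell viability.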

**Q.** Which results are given for CCCS(=O)(=O)Nc1ccc(F)c(C(=O)c2c[nH]c3ncc(-c4ccc(Cl)cc4)cc23)c1F + CC(Nc1ccc2c(c1)OCCn1cc(N3C(=O)OCC3C(F)F)nc1-2)C(N)=O?
**A.** pIC50 (curve of first compound, second compound 0.00316 µM): < 5.00; pIC50 (curve of first compound, second compound 0.01 µM): 5.01; pIC50 [1]: < 5.00; pIC50 [2]: 5.09; pIC50 [3]: < 5.00; pIC50 [4]: 5.42; viability, T/C (second compound 0.00316 µM, first compound 0.0316 µM): 87.1%; viability, T/C (second compound 0.00316 µM, first compound 0.1 µM): 77.7%; viability, T/C (second compound 0.00316 µM, first compound 0.316 µM): 98.3%; viability, T/C (second compound 0.00316 µM, first compound 1 µM): 60.2%; viability, T/C (second compound 0.00316 µM, first compound 3.16 µM): 81.4%; viability, T/C (second compound 0.00316 µM, first compound 10 µM): 53.4%; viability, T/C (second compound 0.01 µM, first compound 0.0316 µM): 95.5%; viability, T/C (second compound 0.01 µM, first compound 0.1 µM): 86.5%; viability, T/C (second compound 0.01 µM, first compound 0.316 µM): 88.7%; viability, T/C (second compound 0.01 µM, first compound 1 µM): 70.3%; viability, T/C (second compound 0.01 µM, first compound 3.16 µM): 89.4%; viability, T/C (second compound 0.01 µM, first compound 10 µM): 49.6%; viability, T/C [5]: 72%; viability, T/C [6]: 79.6%; viability, T/C [7]: 65.2%; viability, T/C [8]: 93.3%; viability, T/C [9]: 91.9%; viability, T/C [10]: 67.8%; viability, T/C [11]: 69.9%; viability, T/C [12]: 73.8%; viability, T/C [13]: 80.3%; viability, T/C [14]: 77.9%; viability, T/C [15]: 81.5%; viability, T/C [16]: 44.1%; viability, T/C [17]: 64.5%; viability, T/C [18]: 61.3%; viability, T/C [19]: 73.8%; viability, T/C [20]: 76.2%; viability, T/C [21]: 75.2%; viability, T/C [22]: 37.6%; viability, T/C [23]: 61.5%; viability, T/C [24]: 55.5%; viability, T/C [25]: 58.9%; viability, T/C [26]: 56%; viability, T/C [27]: 52.6%; viability, T/C [28]: 39.5%

**Q.** With CC(C)NCC(C(=O)N1CCN(c2ncnc3c2C(C)CC3O)CC1)c1ccc(Cl)cc1 (stereo unspecified) + Cc1nc(NC(=O)N2CCCC2C(N)=O)sc1-c1ccnc(C(C)(C)C(F)(F)F)c1 as the compound, how does the pIC50 [1] read?
**A.** < 5.00

**Q.** What about the pIC50 [2] of the same compound?
**A.** < 5.00

**Q.** And the pIC50 [3]?
**A.** < 5.00

**Q.** And the pIC50 [4]?
**A.** < 5.00

**Q.** And the pIC50 [29]?
**A.** < 5.00

**Q.** And the pIC50 [30]?
**A.** < 5.00

**Q.** What about the viability, T/C [5] of the same compound?
**A.** 118%

**Q.** And the viability, T/C [6]?
**A.** 100%

**Q.** And the viability, T/C [7]?
**A.** 115%

**Q.** What about the viability, T/C [8] of the same compound?
**A.** 80.5%

**Q.** What about the viability, T/C [9] of the same compound?
**A.** 77.8%

**Q.** And the viability, T/C [10]?
**A.** 80.8%

**Q.** And the viability, T/C [11]?
**A.** 96.4%

**Q.** And the viability, T/C [12]?
**A.** 82.3%

**Q.** And the viability, T/C [13]?
**A.** 85.1%

**Q.** What about the viability, T/C [14] of the same compound?
**A.** 70.3%

**Q.** What about the viability, T/C [15] of the same compound?
**A.** 68.4%

**Q.** And the viability, T/C [16]?
**A.** 87%

**Q.** And the viability, T/C [17]?
**A.** 88.6%

**Q.** And the viability, T/C [18]?
**A.** 78.6%

**Q.** What about the viability, T/C [19] of the same compound?
**A.** 65.5%

**Q.** What about the viability, T/C [20] of the same compound?
**A.** 81.1%

**Q.** What about the viability, T/C [21] of the same compound?
**A.** 84%

**Q.** What about the viability, T/C [22] of the same compound?
**A.** 70%

**Q.** And the viability, T/C [23]?
**A.** 62.3%

**Q.** And the viability, T/C [24]?
**A.** 64.2%

**Q.** What about the viability, T/C [25] of the same compound?
**A.** 73%

**Q.** And the viability, T/C [26]?
**A.** 78.4%

**Q.** And the viability, T/C [27]?
**A.** 72.3%

**Q.** And the viability, T/C [28]?
**A.** 63.5%

**Q.** And the viability, T/C [31]?
**A.** 67.1%

**Q.** What about the viability, T/C [32] of the same compound?
**A.** 68%

**Q.** What about the viability, T/C [33] of the same compound?
**A.** 56.8%

**Q.** And the viability, T/C [34]?
**A.** 50.7%

**Q.** And the viability, T/C [35]?
**A.** 62.4%

**Q.** What about the viability, T/C [36] of the same compound?
**A.** 57.4%

**Q.** And the viability, T/C [37]?
**A.** 56%

**Q.** What about the viability, T/C [38] of the same compound?
**A.** 54.8%

**Q.** What about the viability, T/C [39] of the same compound?
**A.** 52.4%

**Q.** What about the viability, T/C [40] of the same compound?
**A.** 49.1%

**Q.** And the viability, T/C [41]?
**A.** 55.6%

**Q.** And the viability, T/C [42]?
**A.** 50.5%

**Q.** Which results are given for CC1(C)CCC(Nc2ncc(C(F)(F)F)c(-c3c[nH]c4c(P(C)(C)=O)c(C#N)ccc34)n2)CN1 (stereo unspecified) + CC(Nc1ncnc2nc[nH]c12)c1cc2cccc(Cl)c2c(=O)n1-c1ccccc1?
**A.** pIC50 [1]: < 5.00; pIC50 [2]: < 5.00; pIC50 [3]: < 5.00; pIC50 [4]: < 5.00; pIC50 [29]: < 5.00; pIC50 [30]: 5.32; viability, T/C [5]: 103%; viability, T/C [6]: 90.2%; viability, T/C [7]: 80.3%; viability, T/C [8]: 69.2%; viability, T/C [9]: 68.3%; viability, T/C [10]: 55.4%; viability, T/C [11]: 108%; viability, T/C [12]: 92.8%; viability, T/C [13]: 79.6%; viability, T/C [14]: 75.2%; viability, T/C [15]: 76.6%; viability, T/C [16]: 55.7%; viability, T/C [17]: 83.5%; viability, T/C [18]: 91.6%; viability, T/C [19]: 93%; viability, T/C [20]: 60.9%; viability, T/C [21]: 71.4%; viability, T/C [22]: 64.3%; viability, T/C [23]: 90.6%; viability, T/C [24]: 93.5%; viability, T/C [25]: 64.1%; viability, T/C [26]: 78.1%; viability, T/C [27]: 68.2%; viability, T/C [28]: 63.9%; viability, T/C [31]: 84.6%; viability, T/C [32]: 73.6%; viability, T/C [33]: 85%; viability, T/C [34]: 73.4%; viability, T/C [35]: 73%; viability, T/C [36]: 62.3%; viability, T/C [37]: 72.3%; viability, T/C [38]: 73.8%; viability, T/C [39]: 70.2%; viability, T/C [40]: 63.5%; viability, T/C [41]: 56.8%; viability, T/C [42]: 39.4%

**Q.** Which viability, T/C (compound 0.000316 µM) does the source give for CC(C)n1nc(-c2ccc3oc(N)nc3c2)c2c(N)ncnc21 here?
**A.** 103% [middle of 4 runs]

**Q.** And the viability, T/C (compound 0.00316 µM)?
**A.** 101% [middle of 4 runs]

**Q.** And the viability, T/C (compound 0.0316 µM)?
**A.** 80.7% [middle of 4 runs]

**Q.** What about the viability, T/C (compound 0.1 µM) of the same compound?
**A.** 59.2% [middle of 4 runs]

**Q.** What about the pIC50 (curve of compound) of the same compound?
**A.** < 7.00 and 7.01
